For one assay, the target named is JNK1 (Homo sapiens (Human), UniProt P45983). The assay is described as follows: In Vitro JNK1 Assay (TR-FRET, phosphorylation of GST-c-Jun). The assay is classed as biochemical. Particulars: 0.2 nM active JNK1 kinase, 26.7 nM GST-c-Jun, 2 μM ATP, 30 min at room temperature. Put shortly:
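IC50 derived from percent inhibition across 10 serially diluted concentrations, with TR-FRET detection of phospho-c-Jun via an anti-phospho-c-Jun antibody after EDTA stop. Substrate was GST-c-Jun 1-79, reacted 30 min at room temperature in pH 7.0 HEPES buffer with MgCl2, DTT, vanadate and BSA.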

Assay [1] has as its system phospho(Ser63)-c-jun in HK-2 cells. The assay can be described thus: Cell-Based Assay for JNK Inhibitors (in-cell ELISA, phospho(Ser63)-c-jun after TNFα). Conditions: HK-2 cells (human proximal tubule cells), 60 minutes compound, then 10 ng/mL TNFα for 30 minutes. Put shortly:
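HK-2 human proximal tubule cells were seeded at 40,000 cells/well, cultured 24 h, then serum-starved 16–24 h before TNFα stimulation with compound. Phospho(Ser63)-c-jun was quantified by in-cell ELISA on fixed, permeabilised cells, using a rabbit phospho-specific primary (overnight, 4 °C) and an HRP-linked anti-rabbit secondary. Absorbance was read at 450 nm.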

Sequence of JNK1 (P45983 whole entry): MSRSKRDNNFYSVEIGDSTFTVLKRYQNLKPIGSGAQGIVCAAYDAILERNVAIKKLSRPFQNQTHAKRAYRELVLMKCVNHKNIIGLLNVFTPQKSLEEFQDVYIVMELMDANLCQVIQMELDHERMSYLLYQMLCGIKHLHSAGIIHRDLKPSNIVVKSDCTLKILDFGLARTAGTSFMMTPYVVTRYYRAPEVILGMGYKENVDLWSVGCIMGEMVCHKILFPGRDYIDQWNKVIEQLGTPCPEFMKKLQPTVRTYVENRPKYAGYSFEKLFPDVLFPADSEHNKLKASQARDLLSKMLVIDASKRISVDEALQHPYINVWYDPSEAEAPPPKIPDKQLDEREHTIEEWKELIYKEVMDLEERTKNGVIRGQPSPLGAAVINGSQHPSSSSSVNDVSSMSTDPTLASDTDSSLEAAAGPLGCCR

Usually IC50 stands for the midpoint of a concentration-inhibition curve. The term EC50 denotes the midpoint of the concentration-response curve. A high value points to a need for much substance. On JNK1, `COC(=O)c1c(CNC(=O)c2cccc(Cl)c2)c(=O)c2ccc(Cl)cc2n1-c1ccccc1` [Example I-142, 7-Chloro-3-[(3-chloro-benzoylamino)-methyl]-4-oxo-1-phenyl-1,4-dihydro-quinoline-2-carboxylic acid methyl ester] displayed an IC50 of 17 nM. Also, it took 9700 nM to reach a half-maximal effect in assay [1] (EC50).
On to `COC(=O)c1c(CNC(=O)c2ccc(OC)c(OC)c2)c(=O)c2ccc(Cl)cc2n1-c1ccccc1` [Example I-143, 7-Chloro-3-[(3,4-dimethoxy-benzoylamino)-methyl]-4-oxo-1-phenyl-1,4-dihydro-quinoline-2-carboxylic acid methyl ester], for which the IC50 at JNK1 worked out at 39 nM. Also, the EC50 in assay [1] was 1000 nM.
For `COC(=O)c1c(CNC(=O)c2ccc(Cl)c(Cl)c2)c(=O)c2ccc(Cl)cc2n1-c1ccccc1` [Example I-144, 7-Chloro-3-[(3,4-dichloro-benzoylamino)-methyl]-4-oxo-1-phenyl-1,4-dihydro-quinoline-2-carboxylic acid methyl ester], on JNK1, the IC50 was 48 nM. For the same compound, a half-maximal effect in assay [1] (EC50) was put at 8800 nM.
Taken in the same sequence, the figures for `COC(=O)c1c(CNC(=O)c2ccccc2F)c(=O)c2ccc(Cl)cc2n1-c1ccccc1` [Example I-145, 7-Chloro-3-[(2-fluoro-benzoylamino)-methyl]-4-oxo-1-phenyl-1,4-dihydro-quinoline-2-carboxylic acid methyl ester] were 65 nM and 100000 nM.
For `COC(=O)c1c(CNC(=O)c2ccccc2)c(=O)c2ccc(Cl)cc2n1-c1ccccc1` [Example I-150, 7-Chloro-3-[(benzoylamino)-methyl]-4-oxo-1-phenyl-1,4-dihydro-quinoline-2-carboxylic acid methyl ester] the same measures were 12 nM and 7700 nM.
Taken in the same sequence, the figures for `COC(=O)c1c(CNC(=O)c2ccccc2)c(=O)c2ccccc2n1-c1ccccc1` [Example I-151, 3-(Benzoylamino-methyl)-4-oxo-1-phenyl-1,4-dihydro-quinoline-2-carboxylic acid methyl ester] were 39 nM and 14000 nM.
Consider `COC(=O)c1c(CNC(=O)c2ccc(N3CCOCC3)nc2)c(=O)c2ccc(C(F)(F)F)nc2n1-c1ccccc1` [Example I-152, 3-{[(6-Morpholin-4-yl-pyridine-3-carbonyl)-amino]-methyl}-4-oxo-1-phenyl-7-trifluoromethyl-1,4-dihydro-[1,8]naphthyridine-2-carboxylic acid methyl ester], for which, on JNK1, the IC50 is 18 nM. The EC50 in assay [1] was 7800 nM.
Taken in the same sequence, the figures for `COC(=O)c1c(CNC(=O)c2ccc(-c3ncc[nH]3)cc2)c(=O)c2ccc(C(F)(F)F)nc2n1-c1ccccc1` [Example I-153, 3-{[4-(1H-Imidazol-2-yl)-benzoylamino]-methyl}-4-oxo-1-phenyl-7-trifluoromethyl-1,4-dihydro-[1,8]naphthyridine-2-carboxylic acid methyl ester] were 23 nM and 4600 nM.
The compound `COC(=O)c1c(CNC(=O)c2ccc(S(N)(=O)=O)cc2)c(=O)c2ccc(C(F)(F)F)nc2n1-c1ccccc1` [Example I-154, 4-Oxo-1-phenyl-3-[(4-sulfamoyl-benzoylamino)-methyl]-7-trifluoromethyl-1,4-dihydro-[1,8]naphthyridine-2-carboxylic acid methyl ester] showed an IC50 against JNK1 of 26 nM. Also, in assay [1], the EC50 was determined as 9900 nM.
For `COC(=O)c1c(CNC(=O)c2ccc(C(N)=O)cc2)c(=O)c2ccc(C(F)(F)F)nc2n1-c1ccccc1` [Example I-155, 3-[(4-Carbamoyl-benzoylamino)-methyl]-4-oxo-1-phenyl-7-trifluoromethyl-1,4-dihydro-[1,8]naphthyridine-2-carboxylic acid methyl ester] the same measures were 27 nM and 14000 nM.
For `COC(=O)c1c(CNC(=O)c2ccc(-c3ccn[nH]3)cc2)c(=O)c2ccc(C(F)(F)F)nc2n1-c1ccccc1` [Example I-156, 4-Oxo-1-phenyl-3-{[4-(2H-pyrazol-3-yl)-benzoylamino]-methyl}-7-trifluoromethyl-1,4-dihydro-[1,8]naphthyridine-2-carboxylic acid methyl ester] the same measures were 30 nM and 8700 nM.
`COC(=O)c1c(CNC(=O)c2ccc(-c3nnn(C)n3)cc2)c(=O)c2ccc(C(F)(F)F)nc2n1-c1ccccc1` [Example I-157, 3-{[4-(2-Methyl-2H-tetrazol-5-yl)-benzoylamino]-methyl}-4-oxo-1-phenyl-7-trifluoromethyl-1,4-dihydro-[1,8]-naphthyridine-2-carboxylic acid methyl ester] showed a concentration for half-maximal inhibition (IC50) against JNK1 of 38 nM. The same compound came in with an EC50 in assay [1] of 16000 nM.
As for `COC(=O)c1c(CNC(=O)c2ccc3cc[nH]c3c2)c(=O)c2ccc(C(F)(F)F)nc2n1-c1ccccc1` [Example I-158, 3-{[(1H-Indole-6-carbonyl)-amino]-methyl}-4-oxo-1-phenyl-7-trifluoromethyl-1,4-dihydro-[1,8]naphthyridine-2-carboxylic acid methyl ester], the IC50 against JNK1 turned out to be 79 nM. Besides, the EC50 in assay [1] is 10000 nM.
`COC(=O)c1c(CNC(=O)c2ccc(Cl)c(Cl)c2)c(=O)c2ccc(C(F)(F)F)nc2n1-c1ccccc1` [Example I-159, 3-[(3,4-Dichloro-benzoylamino)-methyl]-4-oxo-1-phenyl-7-trifluoromethyl-1,4-dihydro-[1,8]naphthyridine-2-carboxylic acid methyl ester] yielded an IC50 against JNK1 of 170 nM. The response in assay [1] was half-maximal at 43000 nM (EC50).
Taken in the same sequence, the figures for `COC(=O)c1c(CNC(=O)c2cccc(Cl)c2)c(=O)c2ccc(OC)cc2n1-c1ccccc1` [Example I-160, 3-[(3-Chloro-benzoylamino)-methyl]-7-methoxy-4-oxo-1-phenyl-1,4-dihydro-quinoline-2-carboxylic acid methyl ester] were 26 nM and 22000 nM.
For `COC(=O)c1c(CNC(=O)c2cccc(OC)c2)c(=O)c2ccc(OC)cc2n1-c1ccccc1` [Example I-161, 7-Methoxy-3-[(3-methoxy-benzoylamino)-methyl]-4-oxo-1-phenyl-1,4-dihydro-quinoline-2-carboxylic acid methyl ester] the same measures were 32 nM and 18000 nM.
Taken in the same sequence, the figures for `COC(=O)c1c(CNC(=O)c2ccc(F)c(F)c2)c(=O)c2ccc(OC)cc2n1-c1ccccc1` [Example I-162, 7-Methoxy-3-[(3,4-difluorobenzoylamino)-methyl]-4-oxo-1-phenyl-1,4-dihydro-quinoline-2-carboxylic acid methyl ester] were 39 nM and 38000 nM.
`COC(=O)c1c(CNC(=O)c2ccc(C(C)(C)C)cc2)c(=O)c2ccc(OC)cc2n1-c1ccccc1` [Example I-163, 3-[(4-tert-Butyl-benzoylamino)-methyl]-7-methoxy-4-oxo-1-phenyl-1,4-dihydro-quinoline-2-carboxylic acid methyl ester] gave an IC50 against JNK1 of 47 nM. The same compound returned an EC50 in assay [1] of 14000 nM.
Regarding `COC(=O)c1c(CNC(=O)c2ccc(OC)cc2)c(=O)c2ccc(OC)cc2n1-c1ccccc1` [Example I-164, 3-[(4-methoxy-benzoylamino)-methyl]-7-methoxy-4-oxo-1-phenyl-1,4-dihydro-quinoline-2-carboxylic acid methyl ester], at JNK1, half-maximal inhibition (IC50) required 54 nM. A half-maximal response in assay [1] (EC50) required 8900 nM.
For the compound `COC(=O)c1c(CNC(=O)c2cccnc2)c(=O)c2ccc(OC)cc2n1-c1ccccc1` [Example I-165, 7-Methoxy-4-oxo-1-phenyl-3-{[(pyridine-3-carbonyl)-amino]-methyl}-1,4-dihydro-quinoline-2-carboxylic acidmethyl ester], at JNK1, the midpoint of inhibition, the IC50, lay at 65 nM. This compound showed an EC50 in assay [1] of 100000 nM.
For `COC(=O)c1c(CNC(=O)c2ccc(F)cc2)c(=O)c2ccc(OC)cc2n1-c1ccccc1` [Example I-166, 3-[(4-Fluoro-benzoylamino)-methyl]-7-methoxy-4-oxo-1-phenyl-1,4-dihydro-quinoline-2-carboxylic acid methyl ester] the same measures were 73 nM and 100000 nM.
Taken in the same sequence, the figures for `COC(=O)c1c(CNC(=O)c2ccc(Cl)cc2)c(=O)c2ccc(OC)cc2n1-c1ccccc1` [Example I-168, 3-[(4-Chloro-benzoylamino)-methyl]-7-methoxy-4-oxo-1-phenyl-1,4-dihydro-quinoline-2-carboxylic acid methyl ester] were 100 nM and 32000 nM.
Taken in the same sequence, the figures for `COC(=O)c1c(CNC(=O)c2ccc(N3CCOCC3)nc2)c(=O)c2ccc(F)cc2n1-c1ccccc1` [Example I-169, 7-Fluoro-3-{[(6-morpholin-4-yl-pyridine-3-carbonyl)-amino]-methyl}-4-oxo-1-phenyl-1,4-dihydro-quinoline-2-carboxylic acid methyl ester] were 4 nM and 2400 nM.
`COC(=O)c1c(CNC(=O)c2ccc(Cl)nc2)c(=O)c2ccc(F)cc2n1-c1ccccc1` [Example I-170, 3-{[(6-Chloro-pyridine-3-carbonyl)-amino]-methyl}-7-fluoro-4-oxo-1-phenyl-1,4-dihydroquinoline-2-carboxylic acid methyl ester] had an IC50 against JNK1 of 10 nM. In assay [1], this compound returned an EC50 of 44000 nM.
In turn, `COc1cc2ncnc(NCc3cn(-c4ccccc4)c4cc(Cl)ccc4c3=O)c2cc1OC` [Example I-171, 7-Chloro-3-[(6,7-dimethoxy-quinazolin-4-ylamino)-methyl]-1-phenyl-1H-quinolin-4-one] showed an IC50 against JNK1 of 23 nM. This compound yielded an EC50 in assay [1] of 88000 nM.

The values above are taken from patent US8501732B2, “Aminomethyl quinolone compounds” (Hoffmann-La Roche Inc., priority 2011, dated 2013).
